Source: patent US9938316B2, “Selective inhibitors of α2 isoform of Na,K-ATPase and use thereof for reduction of intra-ocular pressure and as cardiotonic agents” (priority 2013, dated 2018)
Where two headings read alike, the source gives them in different places.

Legend:
[1] = molecular target: Na,K-ATPase α1β1 isoform complex (Homo sapiens, UniProt P05023); assay: biochemical; details: α1β1
Procedure: (§1) Methods for transformation, culture of P. pastoris clones, protein expression of Na,K-ATPase human isoforms (α1β1, α2β1, α3β1), membrane preparation, solubilization of membranes in DDM, and purification on BD-Talon beads have been described in detail (6-9, 11, 25). In initial experiments the three purified isoform complexes (0.3-0.5 mg/ml) were eluted from the BD-Talon beads in a solution containing Imidazole 170 mM, NaCl 100 mM; Tricine.HCl 20 mM pH 7.4; C12E8, 0.1 mg/ml; SOPS 0.07 mg/ml cholesterol 0.01 mg/ml, glycerol 25%. In later experiments the isoforms complexes were reconstituted with purified FXYD1 on the BD-Talon beads together as described in detail in (10, 11) prior to elution of α1β1FXYD1, α2β1FXYD1 and α3β1FXYD1 complexes. The proteins were stored at −80° C. Protein concentration was determined with BCA (B9643 Sigma).
(§2) Inhibition of Na,K-ATPase activity of the detergent-soluble α1β1, α2β1, and α3β1 complexes by CG's was determined as described (6) using either the αβ or αβFXYD1 complexes. […] The K0.5K was estimated by varying K concentration in a medium containing a fixed total K+choline chloride of 60 mM, and constant NaCl of 140 mM. Curves were fitted to the Hill function v=Vmax*[S]^n/([S]^n+K^n), where S is the K concentration, n is the Hill coefficient and K^n is K0.5K. For comparison of different curves the ratio v/Vmax for each curve was calculated and replotted. In experiments to assess inhibition of Na,K-ATPase activity by cardiac glycosides of the present invention, the percent inhibition VCG/V0 was calculated and Ki values were obtained by fitting the data to the function VCG/V0=Ki/([CG]+Ki)+ c. Inhibition was estimated in 3-8 separate experiments and average Ki values ±SEM were calculated. Significance of differences between Kiα1 and Kiα2 was calculated by the unpaired Student's t-test (p values). […] P values <0.05 were considered significant.

[2] = molecular target: Na,K-ATPase α2β1 isoform complex (Homo sapiens, UniProt P50993); assay: biochemical; type: biochemical; details: α2β1
Procedure: as §1, §2

[3] = tested on: Na,K-ATPase α2β1 isoform complex; assay: biochemical; type: biochemical, human; details: Kiα1β1/Kiα2β1
Procedure: as §1, §2

[4] = tested on: intra-ocular pressure (IOP) of rabbits; assay: 4-aminopyridine (4AP)-induced ocular hypertension in rabbits; type: in vivo, New Zealand white rabbits
Procedure: Intra-ocular pressure in rabbits was measured using of a “Reichert Model 30™ Pneumatonometer” after anesthetizing the cornea with local anesthetic.
Since the IOP reflects a balance of the inflow and outflow of aqueous humour, reduction of the increased 4AP-induced inflow of aqueous humour by cardiac glycosides should prevent the increase in IOP. Thus, the standard experimental design to test effects of cardiac glycosides involved topical application of the compounds (1 drop in each eye) 30 minutes prior to application of 4AP and measurement of IOP every 30 minutes over five hours. […] Each experiment was done three times, but the figures depict a representative experiment using a different rabbit for each concentration of the cardiac glycoside.
DGlyN or DMe (0.1 or 1 mM) were applied one hour after the first application of 4AP, which was added every two hours.
New Zealand white rabbits (3-3.5 kg) about 1 year old, of either sex, were housed individually in separate cages in animal room conditions on a reversed, 12-hour dark/light cycle. For the experiments the animals were transferred to rabbit restrainers in a quiet and calm atmosphere (FIG. 1). […] Animal care and treatment were subject to the approval of the institutional committee for animal experiments, Weizmann Institute IACUC permission (no 04270911-2).
IOP (mm Hg) of rabbits was measured using a calibrated Pneumatonometer (Model 30, Reichert technologies, FIG. 1). A local anesthetic Oxybuprocaine HCl (0.4%, 25 μl) was applied to each cornea about a minute before IOP measurements. Two baseline IOP readings were taken before topical administration of the CG (or PBS as control) and after half an hour (Zero time). […] At zero time one drop of 4AP (40 mg/ml, 30 μl) or IB-MECA (1 μM, 30 μl) was administered to both eyes of each rabbit IOP measurements were made at different times as indicated in each experiment. In the experiments for which the IOP was elevated for several hours, 4AP was added every […] or IB-MECA every 2 hours. […] In all cases the figures depict the average effect on IOP (i.e for four or six eyes) compared to control ±SEM. […] Significance of differences from the control was calculated by the unpaired Students t-test (p values), p values <0.05 were considered significant. Corneal thickness (μm) was measured using an ultrasonic pachymeter (Sonogage pachometer, Cleveland, USA), before and during the experiment with CG and 4AP treatments. The values represent averages of three independent measurements for each eye.

cornea of rabbits = assay: Pachymetry: corneal thickness and local toxicity after topical cardiac glycosides; type: in vivo, New Zealand white rabbits; details: for Corneal thickness: 1 mM
Procedure: Thus, in this study, no change in corneal thickness was detected (Table 3), indicative of lack of local toxic effects. […] Similar results were obtained with CG's applied after IB-MECA.
IOP (mm Hg) of rabbits was measured using a calibrated Pneumatonometer (Model 30, Reichert technologies, FIG. 1). A local anesthetic Oxybuprocaine HCl (0.4%, 25 μl) was applied to each cornea about a minute before IOP measurements. Two baseline IOP readings were taken before topical administration of the CG (or PBS as control) and after half an hour (Zero time). […] At zero time one drop of 4AP (40 mg/ml, 30 μl) or IB-MECA (1 μM, 30 μl) was administered to both eyes of each rabbit IOP measurements were made at different times as indicated in each experiment. In the experiments for which the IOP was elevated for several hours, 4AP was added every 1.5 hours or IB-MECA every 2 hours. […] Each experiment was repeated two or three times with similar results. In all cases the figures depict the average effect on IOP (i.e for four or six eyes) compared to control ±SEM. Where error bars are not seen in the figures, the errors are smaller than the symbols used. Significance of differences from the control was calculated by the unpaired Students t-test (p values), p values <0.05 were considered significant. Corneal thickness (μm) was measured using an ultrasonic pachymeter (Sonogage pachometer, Cleveland, USA), before and during the experiment with CG and 4AP treatments. The values represent averages of three independent measurements for each eye.

| SMILES | Ki ([1]; Ki ± S.E. α1, Table 2) [nM] | Ki ([2]; Ki ± S.E. α2, Table 2) [nM] | Selectivity ratio Ki α1/α2 ± S.E. [3] | also measured |
| --- | --- | --- | --- | --- |
| CC1CN(CCC(N)=O)CCC(OC2C(O)CC(OC3C(O)CC(OC4CCC5(C)C(CCC6C5CC(O)C5(C)C(C7=CC(=O)OC7)CCC65O)C4)OC3C)OC2C)O1 (stereo not drawn) [DPrN] | 249 ± 37 | 47 ± 7.8 | 5.28±0.75 |  |
| Nc1ccncc1 [4AP, 4-aminopyridine, reference compound] |  |  |  | Rise of IOP ([4]; one or two drops (40 mg/ml) in each eye): 3-6 mm Hg |
| CC1CN(CCN)CCC(OC2C(O)CC(OC3C(O)CC(OC4CCC5(C)C(CCC6C5CC(O)C5(C)C(C7=CC(=O)OC7)CCC65O)C4)OC3C)OC2C)O1 (stereo not drawn) [DEtDA] | 69 ± 10 | 16.7 ± 2.1 | 4.10 ± 0.82 |  |
| CC1CN(NC(N)=O)CCC(OC2C(O)CC(OC3C(O)CC(OC4CCC5(C)C(CCC6C5CC(O)C5(C)C(C7=CC(=O)OC7)CCC65O)C4)OC3C)OC2C)O1 (stereo not drawn) [DSCar] | 102 ± 23 | 20 ± 3.6 | 4.98±1.2 |  |
| CC1CN(CC(=O)O)CCC(OC2C(O)CC(OC3C(O)CC(OC4CCC5(C)C(CCC6C5CC(O)C5(C)C(C7=CC(=O)OC7)CCC65O)C4)OC3C)OC2C)O1 (stereo not drawn) [DGly] | 124 ± 8.6 | 25 ± 3.9 | 5.1±0.54 |  |
| C[C@H]1O[C@@H](O[C@H]2[C@@H](O)C[C@H](O[C@H]3CC[C@@]4(C)[C@H](CC[C@@H]5[C@@H]4C[C@@H](O)[C@]4(C)[C@@H](C6=CC(=O)OC6)CC[C@]54O)C3)O[C@@H]2C)C[C@H](O)[C@@H]1O [Dbis, digoxigenin bis digitoxide, reference compound] |  |  | 2.65 ± 0.81 | Ki ([1]; Table 2, read-out: Ki ± S.E. α1): 196 ± 8.5 nM; Ki ([2]; Table 2, read-out: Ki ± S.E. α2): 74 ± 5 nM |
| COC(=O)CN1CCC(OC2C(O)CC(OC3C(O)CC(OC4CCC5(C)C(CCC6C5CC(O)C5(C)C(C7=CC(=O)OC7)CCC65O)C4)OC3C)OC2C)OC(C)C1 (stereo not drawn) [DGlMe] | 540 ± 102 | 128 ± 11 | 4.22 ± 0.88 |  |
| CC1CN(C(CO)C(=O)O)CCC(OC2C(O)CC(OC3C(O)CC(OC4CCC5(C)C(CCC6C5CC(O)C5(C)C(C7=CC(=O)OC7)CCC65O)C4)OC3C)OC2C)O1 (stereo not drawn) [DSer] | 316 ± 109 | 145 ± 28.5 | 2.18 ± 0.86 |  |
| CC1CN(O)CCC(OC2C(O)CC(OC3C(O)CC(OC4CCC5(C)C(CCC6C5CC(O)C5(C)C(C7=CC(=O)OC7)CCC65O)C4)OC3C)OC2C)O1 (stereo not drawn) [DOH] | 311 ± 18.5 | 134 ± 35 | 2.32 ± 0.62 |  |
| CC1CN(C(CO)C(N)=O)CCC(OC2C(O)CC(OC3C(O)CC(OC4CCC5(C)C(CCC6C5CC(O)C5(C)C(C7=CC(=O)OC7)CCC65O)C4)OC3C)OC2C)O1 (stereo not drawn) [DSerN] | 242 ± 15 | 144 ± 3.5 | 1.68 ± 0.13 |  |
| CC1CN(CC(=O)O)CCC(OC2C(O)CC(OC3CCC4(C)C(CCC5C4CC(O)C4(C)C(C6=CC(=O)OC6)CCC54O)C3)OC2C)O1 (stereo not drawn) [DbisGly] | 80 ± 5.5 | 34.9 ± 12 | 2.29 ± 0.80 |  |
| C[C@@H]1O[C@@H](O[C@H]2C[C@@H](O)[C@]3(CO)[C@H]4[C@H](O)C[C@]5(C)[C@@H](C6=CC(=O)OC6)CC[C@]5(O)[C@@H]4CC[C@]3(O)C2)[C@H](O)[C@H](O)[C@H]1O [Ouabain, ouabain, reference compound] |  |  |  | Effect on 4AP-induced rise in IOP ([4]; 1 mM, 1 drop topically 30 minutes prior to 4AP): somewhat reduced IOP; Effect on 4AP-induced rise in IOP ([4]; concentrations lower than 1 mM, topically 30 minutes prior to 4AP): poorly effective; Wash-out time/rate compared with other cardiac glycosides ([4]; equal concentrations, 4AP every two hours): washed out at a rate between that of digoxin and digoxigenin; Corneal thickness (cornea of rabbits; left eye, 0 h): 455 microns; Corneal thickness (cornea of rabbits; left eye, 2 h): 409 microns; Corneal thickness (cornea of rabbits; left eye, 4 h): 422 microns; Corneal thickness (cornea of rabbits; right eye, 0 h): 461 microns; Corneal thickness (cornea of rabbits; right eye, 2 h): 405 microns; Corneal thickness (cornea of rabbits; right eye, 4 h): 414 microns; Corneal thickness (in words) (cornea of rabbits; over 4 hours, after 4AP, Digoxin 1 mM, DGlyN 0.5 mM, DMe 0.5 mM, ouabain 1 mM): not significantly affected; Redness or local irritation in conjunctiva or cornea (cornea of rabbits; topical, after 4AP): neither redness nor local irritation were observed |
| CC1CN(C(C)C(N)=O)CCC(OC2C(O)CC(OC3C(O)CC(OC4CCC5(C)C(CCC6C5CC(O)C5(C)C(C7=CC(=O)OC7)CCC65O)C4)OC3C)OC2C)O1 (stereo not drawn) [DAlaN] | 232 ± 28 | 67 ± 8.1 | 3.46 ± 0.59 |  |
